The values below come from patent US7109220B2, “Amino substituted pyridinyl methanone compounds useful in treating kinase disorders” (Janssen Pharmaceutica N.V., priority 2003, dated 2006).

The target of one series is T1, VEGF-R2 kinase (Rattus norvegicus, UniProt O08775).
T1 construct: polyhistidine (N)
The experiment in a line: VEGF-R2 Kinase Screening Assay. The note with it: soluble rat VEGF-R2 kinase, 10 μM ATP; read-out: VEGF-R IC50. It is filed as biochemical. As to the method:
(§1) A kinase reaction mixture was prepared containing 50 mM Tris-HCl pH=8, 10 mM MgCl2, 0.1 mM Na3PO4, 1 mM DTT, 10 μM ATP, 0.025 uM biotinylated peptide substrate and 0.8 μCuries per well^33P-γ-ATP [2000–3000 Ci/mmol]. 70 μL of the kinase reaction mixture was dispensed into the well of a streptavidin coated FlashPlate™ (Cat. #SMP103, NEN, Boston, Mass.). 1 μL of test compound stock in 100% DMSO was added to the wells resulting in a final concentration of 1% DMSO in the mixture with a 100 μL final reaction volume. Soluble rat VEGF-R2 kinase^3 was diluted in 50 mM Tris-HCl pH=8.0, 0.1% BSA at a concentration of 5 ng per microliter and 30 μL (150 ng enzyme per test well) was added to each well to initiate the reaction. The reaction was incubated for one hour at 30° C. At the end of the 1-hour incubation, the reaction was terminated by aspirating the reaction mixture from the plate and washing the wells twice with PBS containing 100 mM EDTA. The PLC1 biotinylated peptide substrate became immobilized on the Flashplate™ and the incoporation of ^33P-γ-ATP was measured by reading the plate on a scintillation counter. Inhibition of the enzymatic activity of the VEGF-R was measured by observing a reduced amount of ^33P-γ-ATP incorporated into the immobilized peptide. ^3VEGF-R2 kinase (Vascular Endothelial Growth Factor Receptor-2): a fusion protein containing a polyhistidine tag at the N-terminus followed by amino acids 786–1343 of the rat VEGF-R2 kinase domain GenBank Accession #U93306); Peptide Substrate (Biotin)KHKKLAEGSAYEEV-Amide
(§2) IC50 values listed as >10 or >100 indicate no observed 50% inhibition at the highest dose tested, nor was an inhibition maximum observed.

Another series concerns the target T2, CDK2:Cyclin-E (Homo sapiens, UniProt P24941).
T2 construct: purchased Upstate Biotechnology, Lake Placid, N.Y
The experiment in a line: CDK2 Screening Assay. It counts as biochemical. Conditions: 10 μM ATP, histone-H1 peptide substrate. As to the method:
(§3) A kinase reaction mixture was prepared containing 50 mM Tris-HCl pH=8, 10 mM MgCl2, 0.1 mM Na3PO4, 1 mM DTT, 10 μM ATP, 0.025 μM biotinylated histone-H1 peptide substrate and 0.2 μCuries per well^33P-γ-ATP [2000–3000 Ci/mmol]. 70 μL of the kinase reaction mixture was dispensed into the well of a streptavidin coated FlashPlate™ (Cat. #SMP103, NEN, Boston, Mass.). Then 1 μL of test compound stock in 100% DMSO was added to the wells resulting in a final concentration of 1% DMSO in the reaction with a 100 μL final reaction volume. CDK1:Cyclin-B protein^1 was diluted in 50 mM Tris-HCl pH=8.0, 0.1% BSA at a concentration of 1 ng per microliter. 30 μL (30 ng enzyme per test well) was added to each well to initiate the reaction, The reaction was incubated for one hour at 30° C. At the end of the 1-hour incubation, the reaction was terminated by aspirating the reaction mixture from the plate and washing the wells twice with PBS containing 100 mM EDTA. The histone-H1 biotinylated peptide substrate became immobilized on the Flashplate™ and the incorporation of ^33P-γ-ATP was measured by reading the plate on a scintillation counter. Inhibition of the enzymatic activity of CDK1 was measured by observing a reduced amount of ^33P-γ-ATP incorporated into the immobilized peptide. ^1CDK1 (cyclin dependent kinase 1) was isolated from insect cells expressing both the human CDK1 catalytic subunit and its positive regulatory subunit Cyclin B (CDK1: New England Biolabs, Beverly, Mass., Cat. #6020; Cyclin-B: BIOMOL, Plymouth Meeting, Pa., Cat. #SE-195); Peptide Substrate (Biotin)KTPKKAKKPKTPKKAKKL-Amide.
Using the procedure and materials of Example 1, replacing CDK1:Cyclin-B protein with CDK2:Cyclin-E protein^2, the IC50 data for CDK2 is shown in Table 2. ^2CDK2 (cyclin dependent kinase 2) in complex with cyclin E is commercially available (Upstate Biotechnology, Lake Placid, N.Y.); Peptide Substrate (Biotin)KTPKKAKKPKTPKKAKKL-Amide
IC50 values listed as ˜100 indicate no observed 50% inhibition at the highest dose tested, nor was an inhibition maximum observed.

Another series deals with T3, CDK1:Cyclin-B (Homo sapiens, UniProt P06493).
T3 construct: purchased New England Biolabs, Beverly, Mass; (CDK1); BIOMOL, Plymouth Meeting, Pa; (Cyclin-B) #6020 (CDK1); #SE-195 (Cyclin-B); host or cells: insect cells
T3 sequence (P06493 whole entry): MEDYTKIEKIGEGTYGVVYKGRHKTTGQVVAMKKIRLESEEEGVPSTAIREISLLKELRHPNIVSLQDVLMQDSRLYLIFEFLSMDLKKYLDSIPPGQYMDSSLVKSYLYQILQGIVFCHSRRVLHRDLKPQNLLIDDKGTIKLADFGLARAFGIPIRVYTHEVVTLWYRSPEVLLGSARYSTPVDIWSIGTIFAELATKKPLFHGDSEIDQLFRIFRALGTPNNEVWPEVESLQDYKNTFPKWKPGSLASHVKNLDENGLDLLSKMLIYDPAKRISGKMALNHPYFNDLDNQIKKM
T3 sequence (P14635 whole entry partner): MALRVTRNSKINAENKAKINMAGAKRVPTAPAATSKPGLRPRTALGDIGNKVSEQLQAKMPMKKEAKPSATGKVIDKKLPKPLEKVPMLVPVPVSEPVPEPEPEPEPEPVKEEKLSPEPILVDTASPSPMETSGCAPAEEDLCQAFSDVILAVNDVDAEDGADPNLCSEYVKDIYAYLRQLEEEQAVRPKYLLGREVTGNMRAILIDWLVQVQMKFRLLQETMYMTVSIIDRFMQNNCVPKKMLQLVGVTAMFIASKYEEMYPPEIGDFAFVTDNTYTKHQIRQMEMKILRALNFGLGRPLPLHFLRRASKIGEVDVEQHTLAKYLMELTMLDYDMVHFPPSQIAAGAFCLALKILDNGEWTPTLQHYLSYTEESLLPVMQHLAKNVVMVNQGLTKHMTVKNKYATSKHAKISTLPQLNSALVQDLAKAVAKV
The experiment in a line: CDK1 Screening Assay. It is filed as biochemical. Conditions: 10 μM ATP, histone-H1 peptide substrate, 1 hour at 30° C. As to the method:
as §3, §2

The next series deals with T4, HER2 kinase (Homo sapiens, UniProt P04626).
T4 construct: polyhistidine (N); 24 additional non-native amino acids (between the His tag and HER2) (N)
T4 sequence (P04626 676-1255 limits assumed): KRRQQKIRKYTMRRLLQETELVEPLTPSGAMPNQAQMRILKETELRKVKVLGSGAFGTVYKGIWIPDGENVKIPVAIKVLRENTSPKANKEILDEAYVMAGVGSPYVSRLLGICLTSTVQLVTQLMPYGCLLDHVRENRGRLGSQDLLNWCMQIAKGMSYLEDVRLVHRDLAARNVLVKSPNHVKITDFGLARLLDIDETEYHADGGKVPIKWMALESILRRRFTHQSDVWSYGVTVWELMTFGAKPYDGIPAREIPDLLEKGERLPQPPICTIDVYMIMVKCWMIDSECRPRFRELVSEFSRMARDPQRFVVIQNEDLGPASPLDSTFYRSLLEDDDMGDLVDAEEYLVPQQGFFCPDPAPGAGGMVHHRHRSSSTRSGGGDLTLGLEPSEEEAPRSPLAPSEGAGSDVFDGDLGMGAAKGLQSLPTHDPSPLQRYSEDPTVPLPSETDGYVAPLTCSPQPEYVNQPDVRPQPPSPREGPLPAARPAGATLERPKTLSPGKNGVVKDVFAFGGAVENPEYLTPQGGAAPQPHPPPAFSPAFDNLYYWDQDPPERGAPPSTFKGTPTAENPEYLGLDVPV
The series can be described thus: HER-2 Kinase Screening Assay. It is filed as biochemical. Conditions: HER2 cytoplasmic domain construct, 10 μM ATP. Here is the method: as §1
Using the procedure and materials of Example 3, replacing VEGF-R2 kinase with HER2^4, the IC50 data for HER2 kinase is shown in Table 4. ^4HER2 (Human Epidermal Growth Factor Receptor-2): a construct containing a polyhistidine tag at the N-terminus followed by 24 additional non-native amino acids beginning at amino acid 676 (Accession number M11730) followed by the remainder of the HER2 cytoplasmic domain; Peptide Substrate (Biotin)KHKKLAEGSAYEEV-Amide.
IC50 values listed as >100 indicate no observed 50% inhibition at the highest dose tested, nor was an inhibition maximum observed.

Another series has as its system A375 malignant melanoma. The series can be described thus: Inhibition of Cell Proliferation (14C-thymidine incorporation), A375. It is filed as cell-based. Conditions: Homo sapiens, A-375. As to the method: (§4) The ability of a test compound to inhibit the proliferation of cell growth was determined by measuring incorporation of ^14C-labelled thymidine into newly synthesized DNA within the cells. This method was used on cell lines derived from carcinomas originating from several tissues such as HeLa cervical adenocarcinoma (American Type Culture Collection (ATCC), Virginia, Cat. #CCL-2), HCT-116 colon carcinoma (CCL-247), MDA-MB-231 (Xenogen Corp.), PC-3 prostate adenocarcinoma (ATCC CRL-1435) and A375 malignant melanoma (ATCC CRL-1619).
(§5) Using this method, the effect of a compound on cell growth for cells with many different phenotypes can be determined. Cells were trypsinized and counted and 3000–8000 cells were added to each well of a 96-well CytoStar tissue culture treated scintillating microplate (Amersham #RPNQ0160) in complete medium in a volume of 100 μl. Cells were incubated for 24 hours in complete medium at 37° C. in an atmosphere containing 5% CO2. 1 μL of test compound in 100% DMSO was then added to the wells of the plate. DMSO only was added to control wells. Cells were incubated for 24 more hours in complete medium at 37° C. in an atmosphere containing 5% CO2. […] The degree of methyl ^14C-thymidine incorporation was quantified on a Packard Top Count.
In general terms: Uptake of a labelled nucleoside into DNA is a usual measure of proliferation.

In series [1] the test system is HeLa cervical adenocarcinoma. The series can be described thus: Inhibition of Cell Proliferation (14C-thymidine incorporation), HeLa. It counts as cell-based. The note with it: Homo sapiens. As to the method:
as §4, §5

The next series deals with HCT-116 colon carcinoma. The experiment in a line: Inhibition of Cell Proliferation (14C-thymidine incorporation), HCT-116. The note with it: Homo sapiens. It counts as cell-based. Here is the method: as §4, §5

Each structure is given as a SMILES string. Bounds are passed on as bounds.

T1 sequence (O08775 786-1343): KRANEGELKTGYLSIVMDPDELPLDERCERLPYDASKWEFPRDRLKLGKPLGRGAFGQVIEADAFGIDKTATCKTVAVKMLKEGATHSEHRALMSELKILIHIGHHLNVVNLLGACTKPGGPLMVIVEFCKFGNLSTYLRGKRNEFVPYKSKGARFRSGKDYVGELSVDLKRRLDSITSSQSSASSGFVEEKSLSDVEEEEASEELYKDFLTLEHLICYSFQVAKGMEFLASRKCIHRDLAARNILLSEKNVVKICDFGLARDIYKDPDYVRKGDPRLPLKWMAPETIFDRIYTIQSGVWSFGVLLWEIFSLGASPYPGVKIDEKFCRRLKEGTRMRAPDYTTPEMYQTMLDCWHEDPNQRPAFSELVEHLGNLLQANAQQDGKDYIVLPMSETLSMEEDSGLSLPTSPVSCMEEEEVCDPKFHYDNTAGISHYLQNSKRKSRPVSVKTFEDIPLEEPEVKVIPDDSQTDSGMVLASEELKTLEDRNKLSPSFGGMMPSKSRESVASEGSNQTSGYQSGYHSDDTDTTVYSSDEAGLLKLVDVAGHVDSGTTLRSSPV

The compound `Nc1ccc(C(=O)c2c(F)cccc2F)c(N)n1` [Cpd 1, (2,6-diamino-3-pyridinyl)(2,6-difluorophenyl)methanone] came in with a melting point of 179 to 181 °C. Further, at VEGF-R2 kinase, the IC50 was above 10 µM.

The compound `Nc1nc(Nc2ccc([N+](=O)[O-])cc2)ccc1C(=O)c1c(F)cccc1F` [Cpd 9, [2-amino-6-[(4-nitrophenyl)amino]-3-pyridinyl](2,6-difluorophenyl)methanone] gave a melting point of 220 to 225 °C. The IC50 at VEGF-R2 kinase is above 10 µM.

Take `CCCCOc1cc(N)nc(N)c1C(=O)c1c(F)cccc1F` [Cpd 31, (2,6-Diamino-4-butoxy-pyridin-3-yl)-(2,6-difluoro-phenyl)-methanone]: the IC50 is 1.32 µM against CDK2:Cyclin-E, 1.16 µM on CDK1:Cyclin-B, 40.2 µM on VEGF-R2 kinase and 1.14 µM on HER2 kinase.

`CCCCOc1cc(NC(=S)Nc2ccccc2)nc(N)c1C(=O)c1c(F)cccc1F` [Cpd 33, 1-[6-Amino-4-butoxy-5-(2,6-difluoro-benzoyl)-pyridin-2-yl]-3-phenyl-thiourea]: the IC50 against CDK2:Cyclin-E is at least 100 µM; against CDK1:Cyclin-B, above 100 µM; at VEGF-R2 kinase, above 100 µM; at HER2 kinase, above 100 µM.

For the compound `CCCCOc1cc(NC(=O)c2ccccc2)nc(N)c1C(=O)c1c(F)cccc1F` [Cpd 34, N-[6-Amino-4-butoxy-5-(2,6-difluoro-benzoyl)-pyridin-2-yl]-benzamide], the half-inhibitory concentration (IC50) at CDK2:Cyclin-E was at least 100 µM; on CDK1:Cyclin-B, above 100 µM; on VEGF-R2 kinase it was above 100 µM; against HER2 kinase, above 100 µM.

`CCCCOc1cc(Nc2ccc(S(=O)(=O)N(C)C)cc2)nc(N)c1C(=O)c1c(F)cccc1F` [Cpd 35, 4-[6-Amino-4-butoxy-5-(2,6-difluoro-benzoyl)-pyridin-2-ylamino]-N,N-dimethyl-benzenesulfonamide]: the half-maximal inhibitory concentration (IC50) is 0.62 µM at CDK2:Cyclin-E, around 1 µM at CDK1:Cyclin-B, above 100 µM at VEGF-R2 kinase and above 100 µM against HER2 kinase.

Consider `CCCCOc1cc(Nc2ccc(S(N)(=O)=O)cc2)nc(N)c1C(=O)c1c(F)cccc1F` [Cpd 36, 4-[6-Amino-4-butoxy-5-(2,6-difluoro-benzoyl)-pyridin-2-ylamino]-benzenesulfonamide], for which the IC50 in the series on A375 malignant melanoma was 2.96 µM; against CDK2:Cyclin-E, 0.07 µM; on CDK1:Cyclin-B, 0.28 µM; at VEGF-R2 kinase it was above 100 µM; against HER2 kinase, 1 µM; in series [1] it was 10.7 µM. The compound also came in with an IC50 in the series on HCT-116 colon carcinoma of 6.78 µM.

Take `N#Cc1ccc(Nc2ccc(C(=O)c3c(F)cccc3F)c(N)n2)cc1` [Cpd 8, 4-[[6-amino-5-(2,6-difluorobenzoyl)-2-pyridinyl]amino]benzonitrile]: the melting point is 208 to 210 °C (dec.). Moreover, the IC50 at VEGF-R2 kinase is above 10 µM.

In the case of `CCCCOc1cc(NC(=O)Nc2ccccc2)nc(N)c1C(=O)c1c(F)cccc1F` [Cpd 32, 1-[6-Amino-4-butoxy-5-(2,6-difluoro-benzoyl)-pyridin-2-yl]-3-phenyl-urea], the IC50 against CDK2:Cyclin-E is at least 100 µM; on CDK1:Cyclin-B, above 100 µM; on VEGF-R2 kinase, above 100 µM; at HER2 kinase it was above 100 µM.

In general, melting point refers to the temperature of the solid-liquid transition. In general, IC50 refers to the concentration that inhibits the measured activity by half.
